According to ChEMBL document CHEMBL1649156, “Antianaerobic activity of sulopenem compared to six other agents” (2009):
≈ marks a conversion by molar mass, not a printed value.

How the values were obtained:
Assay type in all cases: functional
[1] = tested on: Prevotella disiens; assay: Antimicrobial activity in Prevotella disiens by CLSI agar dilution method
[2] = tested on: Parabacteroides distasonis; assay: Antimicrobial activity in Bacteroides distasonis by CLSI agar dilution method
[3] = tested on: Clostridium sp.; assay: Antimicrobial activity in Clostridium sp. by CLSI agar dilution method
[4] = tested on: Bacteroides ovatus; assay: Antimicrobial activity in Bacteroides ovatus by CLSI agar dilution method
[5] = tested on: Clostridium perfringens; assay: Antimicrobial activity in Clostridium perfringens by CLSI agar dilution method
[6] = tested on: Clostridium butyricum; assay: Antimicrobial activity in Clostridium butyricum by CLSI agar dilution method
[7] = tested on: Bacteroides fragilis; assay: Antimicrobial activity in Bacteroides fragilis by CLSI agar dilution method
[8] = tested on: Fusobacterium nucleatum; assay: Antimicrobial activity in Fusobacterium nucleatum by CLSI agar dilution method
[9] = tested on: Thomasclavelia ramosa; assay: Antimicrobial activity in Clostridium ramosum by CLSI agar dilution method
[10] = tested on: Prevotella veroralis; assay: Antimicrobial activity in Prevotella veroralis by CLSI agar dilution method
[11] = tested on: Peptostreptococcus anaerobius; assay: Antimicrobial activity in Peptostreptococcus anaerobius by CLSI agar dilution method
[12] = tested on: Prevotella melaninogenica; assay: Antimicrobial activity in Prevotella melaninogenica by CLSI agar dilution method
[13] = tested on: Paeniclostridium sordellii; assay: Antimicrobial activity in Clostridium sordellii by CLSI agar dilution method; conditions: Paraclostridium sordellii
[14] = tested on: Bacteroides thetaiotaomicron; assay: Antimicrobial activity in Bacteroides thetaiotaomicron by CLSI agar dilution method
[15] = tested on: Clostridium cadaveris; assay: Antimicrobial activity in Clostridium cadaveris by CLSI agar dilution method
[16] = tested on: Prevotella nigrescens; assay: Antimicrobial activity in Prevotella nigrescens by CLSI agar dilution method
[17] = tested on: Hoylesella oralis; assay: Antimicrobial activity in Prevotella oralis group by CLSI agar dilution method
[18] = tested on: Porphyromonas asaccharolytica; assay: Antimicrobial activity in Porphyromonas asaccharolytica by CLSI agar dilution method
[19] = tested on: Hoylesella loescheii; assay: Antimicrobial activity in Prevotella loescheii by CLSI agar dilution method
[20] = tested on: Prevotella bivia; assay: Antimicrobial activity in Prevotella bivia by CLSI agar dilution method
[21] = tested on: Anaerococcus prevotii; assay: Antimicrobial activity in Anaerococcus prevotii by CLSI agar dilution method
[22] = tested on: Prevotella sp.; assay: Antimicrobial activity in Prevotella sp.by CLSI agar dilution method
[23] = tested on: Prevotella baroniae; assay: Antimicrobial activity in Prevotella baroniae by CLSI agar dilution method; conditions: Segatella baroniae
[24] = tested on: Actinomyces; assay: Antimicrobial activity in Actinomyces by CLSI agar dilution method
[25] = tested on: Bacteroides uniformis; assay: Antimicrobial activity in Bacteroides uniformis by CLSI agar dilution method
[26] = tested on: Bifidobacterium; assay: Antimicrobial activity in Bifidobacterium by CLSI agar dilution method
[27] = tested on: Prevotella corporis; assay: Antimicrobial activity in Prevotella corporis by CLSI agar dilution method
[28] = tested on: Phocaeicola vulgatus; assay: Antimicrobial activity in Bacteroides vulgatus by CLSI agar dilution method
[29] = tested on: Parvimonas micra; assay: Antimicrobial activity in Micromonas micros by CLSI agar dilution method
[30] = tested on: Eggerthella lenta; assay: Antimicrobial activity in Eggerthella lenta by CLSI agar dilution method
[31] = tested on: Fusobacterium varium; assay: Antimicrobial activity in Fusobacterium varium by CLSI agar dilution method
[32] = tested on: Lactobacillus; assay: Antimicrobial activity in Lactobacillus by CLSI agar dilution method
[33] = tested on: Bacteroides stercoris; assay: Antimicrobial activity in Bacteroides stercoris by CLSI agar dilution method
[34] = tested on: Prevotella intermedia; assay: Antimicrobial activity in Prevotella intermedia by CLSI agar dilution method
[35] = tested on: Prevotella salivae; assay: Antimicrobial activity in Prevotella salivae by CLSI agar dilution method; conditions: Segatella salivae
[36] = tested on: Peptoniphilus asaccharolyticus; assay: Antimicrobial activity in Peptoniphilus asaccharolyticus by CLSI agar dilution method
[37] = tested on: Clostridium tertium; assay: Antimicrobial activity in Clostridium tertium by CLSI agar dilution method
[38] = tested on: Enterocloster clostridioformis; assay: Antimicrobial activity in Clostridium clostridioforme by CLSI agar dilution method
[39] = tested on: Finegoldia magna; assay: Antimicrobial activity in Finegoldia magna by CLSI agar dilution method
[40] = tested on: Fusobacterium mortiferum; assay: Antimicrobial activity in Fusobacterium mortiferum by CLSI agar dilution method
[41] = tested on: Cutibacterium acnes; assay: Antimicrobial activity in Propionibacterium acnes by CLSI agar dilution method
[42] = tested on: Prevotella buccae; assay: Antimicrobial activity in Prevotella buccae by CLSI agar dilution method; conditions: Segatella buccae
[43] = tested on: [Clostridium] innocuum; assay: Antimicrobial activity in Clostridium innocuum by CLSI agar dilution method
[44] = tested on: Paraclostridium bifermentans; assay: Antimicrobial activity in Clostridium bifermentans by CLSI agar dilution method
[45] = tested on: Anaerococcus tetradius; assay: Antimicrobial activity in Anaerococcus tetradius by CLSI agar dilution method
[46] = tested on: Porphyromonas gingivalis; assay: Antimicrobial activity in Porphyromonas gingivalis by CLSI agar dilution method
[47] = tested on: Prevotella denticola; assay: Antimicrobial activity in Prevotella denticola by CLSI agar dilution method
[48] = tested on: Tissierella praeacuta; assay: Antimicrobial activity in Clostridium hastiforme by CLSI agar dilution method
[49] = tested on: Clostridioides difficile; assay: Antimicrobial activity in Clostridium difficile by CLSI agar dilution method
[50] = tested on: Prevotella bergensis; assay: Antimicrobial activity in Prevotella bergensis by CLSI agar dilution method; conditions: Hallella bergensis
[51] = tested on: Fusobacterium necrophorum; assay: Antimicrobial activity in Fusobacterium necrophorum by CLSI agar dilution method

Cc1ncc([N+](=O)[O-])n1CCO [METRONIDAZOLE]
MIC [1]: 1 µg/mL (≈ 5.84 µM) | MIC50 [1]: 1 µg/mL (≈ 5.84 µM) | MIC50 [2]: 1 µg/mL (≈ 5.84 µM) | MIC90 [2]: 1 µg/mL (≈ 5.84 µM) | MIC50 [3]: 1 µg/mL (≈ 5.84 µM) | MIC90 [3]: 1 µg/mL (≈ 5.84 µM) | MIC50 [4]: 1 µg/mL (≈ 5.84 µM) | MIC90 [4]: 1 µg/mL (≈ 5.84 µM) | MIC50 [5]: 1 µg/mL (≈ 5.84 µM) | MIC90 [5]: 1 µg/mL (≈ 5.84 µM) | MIC [6]: ≤ 0.125 µg/mL | MIC50 [7]: 1 µg/mL (≈ 5.84 µM) | MIC90 [7]: 1 µg/mL (≈ 5.84 µM) | MIC [8]: ≤ 0.125 µg/mL | MIC50 [8]: ≤ 0.125 µg/mL | MIC90 [8]: 0.5 µg/mL (≈ 2.92 µM) | MIC [9]: 1 µg/mL (≈ 5.84 µM) | MIC [10]: 0.25 µg/mL (≈ 1.46 µM) | MIC50 [11]: 0.5 µg/mL (≈ 2.92 µM) | MIC90 [11]: 1 µg/mL (≈ 5.84 µM) | MIC50 [12]: 0.5 µg/mL (≈ 2.92 µM) | MIC90 [12]: 1 µg/mL (≈ 5.84 µM) | MIC [13]: 1 µg/mL (≈ 5.84 µM) | MIC [14]: 1 µg/mL (≈ 5.84 µM) | MIC50 [14]: 1 µg/mL (≈ 5.84 µM) | MIC90 [14]: 2 µg/mL (≈ 11.7 µM) | MIC [15]: ≤ 0.125 µg/mL | MIC50 [16]: 0.5 µg/mL (≈ 2.92 µM) | MIC90 [16]: 1 µg/mL (≈ 5.84 µM) | MIC [17]: ≤ 0.125 µg/mL | MIC [18]: ≤ 0.125 µg/mL | MIC [19]: 0.5 µg/mL (≈ 2.92 µM) | MIC50 [20]: 2 µg/mL (≈ 11.7 µM) | MIC90 [20]: 4 µg/mL (≈ 23.4 µM) | MIC [21]: 1 µg/mL (≈ 5.84 µM) | MIC [22]: 0.5 µg/mL (≈ 2.92 µM) | MIC [23]: 0.5 µg/mL (≈ 2.92 µM) | MIC [24]: > 1 µg/mL | MIC50 [24]: > 16 µg/mL | MIC [25]: 0.5 µg/mL (≈ 2.92 µM) | MIC50 [25]: 0.5 µg/mL (≈ 2.92 µM) | MIC50 [26]: > 16 µg/mL | MIC90 [26]: > 16 µg/mL | MIC [27]: ≤ 0.125 µg/mL | MIC50 [27]: 0.5 µg/mL (≈ 2.92 µM) | MIC50 [28]: 0.5 µg/mL (≈ 2.92 µM) | MIC90 [28]: 1 µg/mL (≈ 5.84 µM) | MIC50 [29]: 0.25 µg/mL (≈ 1.46 µM) | MIC90 [29]: 0.5 µg/mL (≈ 2.92 µM) | MIC50 [30]: 0.5 µg/mL (≈ 2.92 µM) | MIC90 [30]: 0.5 µg/mL (≈ 2.92 µM) | MIC50 [31]: 0.25 µg/mL (≈ 1.46 µM) | MIC90 [31]: 0.5 µg/mL (≈ 2.92 µM) | MIC [32]: > 16 µg/mL | MIC50 [32]: > 16 µg/mL | MIC90 [32]: 16 µg/mL (≈ 93.5 µM) | MIC [33]: 1 µg/mL (≈ 5.84 µM) | MIC50 [33]: 1 µg/mL (≈ 5.84 µM) | MIC50 [34]: 0.5 µg/mL (≈ 2.92 µM) | MIC90 [34]: 1 µg/mL (≈ 5.84 µM) | MIC [35]: ≤ 0.125 µg/mL | MIC [36]: ≤ 0.125 µg/mL | MIC50 [36]: 1 µg/mL (≈ 5.84 µM) | MIC [37]: 0.5 µg/mL (≈ 2.92 µM) | MIC50 [37]: 1 µg/mL (≈ 5.84 µM) | MIC [38]: ≤ 0.125 µg/mL | MIC50 [39]: 0.5 µg/mL (≈ 2.92 µM) | MIC90 [39]: 1 µg/mL (≈ 5.84 µM) | MIC50 [40]: 0.25 µg/mL (≈ 1.46 µM) | MIC90 [40]: 0.5 µg/mL (≈ 2.92 µM) | MIC [41]: > 16 µg/mL | MIC50 [41]: > 16 µg/mL | MIC90 [41]: > 16 µg/mL | MIC50 [42]: 1 µg/mL (≈ 5.84 µM) | MIC90 [42]: 2 µg/mL (≈ 11.7 µM) | MIC [43]: ≤ 0.125 µg/mL | MIC [44]: 0.25 µg/mL (≈ 1.46 µM) | MIC50 [45]: 1 µg/mL (≈ 5.84 µM) | MIC90 [45]: 1 µg/mL (≈ 5.84 µM) | MIC [46]: ≤ 0.125 µg/mL | MIC50 [47]: 0.5 µg/mL (≈ 2.92 µM) | MIC90 [47]: 1 µg/mL (≈ 5.84 µM) | MIC [48]: 0.25 µg/mL (≈ 1.46 µM) | MIC50 [49]: 0.5 µg/mL (≈ 2.92 µM) | MIC90 [49]: 0.5 µg/mL (≈ 2.92 µM) | MIC [50]: 0.5 µg/mL (≈ 2.92 µM) | MIC [51]: ≤ 0.125 µg/mL | MIC50 [51]: 0.25 µg/mL (≈ 1.46 µM)
